From patent publication US20090149461A1, “METHOD OF TREATING CANCER” (ABBOTT LABORATORIES, priority 2007, published 2009)
Like-named read-outs stand apart in the source and are kept apart here.

Experiments:
Bcl-w = biological target: T1, Bcl-w (Homo sapiens, UniProt Q92843); assay: binding affinity to anti-apoptotic Bcl-2 family proteins
T1 sequence (Q92843 1-193): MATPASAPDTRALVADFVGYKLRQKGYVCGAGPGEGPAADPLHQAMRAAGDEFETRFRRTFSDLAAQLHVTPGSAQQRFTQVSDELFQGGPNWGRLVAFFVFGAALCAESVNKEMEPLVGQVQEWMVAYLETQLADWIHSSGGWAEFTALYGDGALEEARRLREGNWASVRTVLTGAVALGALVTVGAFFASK

Bcl-B = biological target: T2, Bcl-B (Homo sapiens, UniProt Q9HD36); assay: as above
T2 sequence (Q9HD36 1-204): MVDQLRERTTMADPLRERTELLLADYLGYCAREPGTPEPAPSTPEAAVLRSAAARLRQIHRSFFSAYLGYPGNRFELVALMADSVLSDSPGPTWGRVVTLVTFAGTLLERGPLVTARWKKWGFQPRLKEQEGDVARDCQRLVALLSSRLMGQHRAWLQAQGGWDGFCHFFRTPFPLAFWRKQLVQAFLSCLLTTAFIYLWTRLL

[1] = test system: human tumor cell lines derived from small cell lung carcinomas and lymphoid malignancies; assay: mechanism-based cytotoxicity in tumor cell lines
[2] = test system: 22 cell lines consisting of multiple leukemia and lymphoma types (B-cell and T-cell malignancies); assay: single agent activity in leukemia and lymphoma cell line panel; type: cell-based
DoHH-2 = assay: flank model of diffuse large B-cell lymphoma, monotherapy; type: in vivo; conditions: DoHH-2 flank model; 100 mg/kg/day p.o., q.d.×17 days
Text: (§1) Both of these tumors are known to express high levels of Bcl-2 due to the t(14;18) translocation. The WSU-DLCL2 line was isolated from a patient whose disease progressed following chemotherapy, radiation therapy and bone marrow transplantation and is recognized as a model of therapy-resistant lymphoma.

WSU-DLCL2 = assay: as above; type: in vivo; conditions: 100 mg/kg/day p.o., q.d.×17 days
Text: as §1

[3] = nonclinical pharmacokinetic profile in multiple animal models; type: in vivo; conditions: all species studied
[4] = oral bioavailability from prototype formulations in dog; type: in vivo; conditions: beagle, plasma, prototype solid dispersion and lipid-based formulations
Text: (§2) The oral bioavailability of the compound is formulation dependent, with values of 30% to 50% obtained from prototype solid dispersion and lipid-based formulations in dog. […] Elimination of total radioactivity is rapid, with 90% of the dose recovered within 24-hours post-dose.

[5] = (14C) ABT-263 absorption and elimination in rat; type: in vivo
Text: as §2

[6] = simulation of q.d. dosing in humans (exposure and platelets)
Text: Based on preclinical evidence, potential treatment-related side effects may include drug interactions, lymphopenia, testicular effects, and thrombocytopenia. […] Under these conditions, platelet values are expected to be ′25 K/.iL at steady state.

[7] = test system: cultured human peripheral blood lymphocytes; assay: chromosomal aberration assay; type: cell-based; conditions: with or without metabolic activation
[8] = in vivo rat micronucleus assay
dog toxicity studies = type: in vivo
Text: Target organs in the dog included lymphoid tissues (spleen, Peyer's patch, lymph nodes, and thymus (a 2-week study)), male reproductive tissues (testes and epididymides), and pancreas. The microscopic changes observed in these target organs included decreased size of follicles, cortex, and/or germinal centers in lymphoid tissue; decreased cellularity in mantle zone, germinal centers, and/or interfollicular areas of lymphoid tissue; spermatogonia, spermatocyte and/or spermatid (round and elongated) depletion; and pancreatic acinar cell single cell necrosis. With the exception of pancreatic acinar cell single cell necrosis, these microscopic changes were also noted following a 4-week dose-free recovery period.

platelets = assay: decrease in circulating platelets in animals; type: in vivo, mouse, rat and dog
Text: Thrombocytopenia was seen after administration of a single dose and is present at the time of Cmax.

[9] = Phase 1/2a study pharmacokinetics; type: in vivo, human; conditions: for AUC: human
Experimental: There was no drug administered for the 72 hours following the first dose of the first cycle (Day-3) in order to assess the single-dose pharmacokinetics and toxicity.
Additional blood samples were collected at 0 hour (pre dose) on Day 14, Cycle 2 through Cycle 6. Sufficient blood were collected to provide approximately 1 mL plasma from each sample. A total of 27 blood samples (approximately 81 mL) were collected per subject for pharmacokinetic analysis during Cycle 1 and one additional blood sample per subject per cycle in the following cycles (up to Cycle 6).
The plasma samples were transferred using plastic pipettes into screw-capped polypropylene tubes labeled with the drug number name, type of sample (plasma), the protocol number, the subject number, the study cycle and day and the planned time of sampling relative to dosing. The plasma samples were frozen at −20° C. or colder within 1 hour after collection and will remain frozen until shipped.
Additional parameters may be calculated if useful in the interpretation of the data.
Subjects self-administered ABT-263 orally once daily (QD). Each dose were taken with approximately 240 mL of water. On days that pre-dose pharmacokinetic sampling is required (Cycle 1 Day-3, Cycle 1 Day 1, Cycle 1 Day 2, Cycle 1 Day 14, Cycle 2 Day 14, Cycle 3 Day 14, Cycle 4 Day 14, Cycle 5 Day 14 and Cycle 6 Day 14 in Phase 1 and on Cycle 1 Day 14 in Phase 2a) dosing will occur in the morning in the clinic to facilitate pharmacokinetic sampling.

[10] = rat, in vivo, 4 weeks
[11] = test system: Salmonella-Escherichia coli; assay: Salmonella-Escherichia coli bacterial mutation assay (Ames); conditions: with or without metabolic activation

Work on `CC1(C)CCC(c2ccc(Cl)cc2)=C(CN2CCN(c3ccc(C(=O)NS(=O)(=O)c4ccc(N[C@H](CCN5CCOCC5)CSc5ccccc5)c(S(=O)(=O)C(F)(F)F)c4)cc3)CC2)C1` [ABT-263, N-(4-(4-((2-(4-chlorophenyl)-5,5-dimethyl-1-cyclohex-1-en-1-yl)methyl)piperazin-1-yl)benzoyl)-4-(((1R)-3-(morpholin-4-yl)-1-((phenylsulfanyl)methyl)propyl)amino)-3-((trifluoromethyl)sulfonyl)benzenesulfonamide] yielded a Ki (Bcl-w) of no more than 1 nM, a Ki (Bcl-B) of no more than 1 nM and an EC50 [1] of no more than 1000 nM. The “cell lines with potent single agent activity” value [2] was 10 of 22, the monotherapy activity (DoHH-2) was “significant monotherapy activity” and the monotherapy activity (WSU-DLCL2) was “significant monotherapy activity”. For the same molecule, the half-life ([3]; CD-1 (mouse), Sprague-Dawley (rat), beagle (dog), mouse, rat, dog, cynomolgus monkey, plasma, read-out: terminal half-lives) was 4.6 to 8.4 h, the plasma clearance [3] was “very low” and the volumes of distribution [3] was “low”. The bioavailability [4] was 30 to 50%, the absorption ([5]; (14C) ABT-263) was “slowly absorbed” and the “parent drug in systemic circulation” value ([5]; (14C) ABT-263) was “major component”. For the same molecule, the “dose recovered (total radioactivity)” value ([5]; within 24-hours post-dose) was 90%, the “expected biologically effective plasma concentration in humans” value [6] was 6.7 .iM and the “chromosome aberrations in human lymphocytes in vitro” value [7] was “did not induce chromosome aberrations”. The “clastogenicity in rat micronucleus assay” value [8] was “not clastogenic”, the bleeding time (dog toxicity studies; 2-week toxicity study, dogs with low platelet counts (<50 K/μL)) was “prolonged bleeding time” and the “time to full reversal of platelet effect after treatment ended” value (dog toxicity studies; 4-week toxicity study in dogs) was “less than 7 days”. For the same molecule, the effect on lymphocytes (dog toxicity studies; dog) was “mild decrease”, the effect on platelets (dog toxicity studies; dog) was “marked decrease” and the NOAEL at 4 weeks (dog toxicity studies; dog, in vivo, 4 weeks of administration to dogs) was 1 mg/kg/day. The “time for platelet counts to return to normal values” (platelets; after a single dose) was “approximately one week”, the “duration for which platelet toxicity was tolerated” value (platelets; rat and dog) was “up to 28 days” and the “effect of food on oral absorption” value ([9]; fasting vs non-fasting) was “mild positive effect”. The “Inter-subject variability in exposure” value ([9]; human subjects) was roughly 40%, the “dose proportionality of exposure” value ([9]; human subjects) was “dose-proportional” and the AUC ([9]; in vivo, preclinical target, read-out: Preclinical target AUC) was 53000 to 88000 ng·h/mL. For the same molecule, the AUC ([9]; plasma, oral, 225 mg (n=4), read-out: Mean AUC) was 47000 ng·h/mL, the AUC ([9]; plasma, oral, 315 mg (n=5), read-out: Mean AUC) was 100000 ng·h/mL and the AUC ([9]; plasma, oral, 440 mg (n=3), read-out: Mean AUC) was 109000 ng·h/mL. For the same molecule, the half-life ([9]; plasma, oral, human subjects) was 14 to 20 h, the tolerated dose [10] was 10 mg/kg/day and the “no-observed-adverse-effect-level (NOAEL)” value (rat toxicity studies; 4-week rat toxicity study) was “not reached”. The “effect on liver enzymes (ALT, AST, alkaline phosphatase)” value (rat toxicity studies; rat) was “minimal to mild increases”, the effect on lymphocytes (rat toxicity studies; rat) was “minimal to moderate decreases” and the effect on platelets (rat toxicity studies; rat) was “mild to marked decreases”. For the same molecule, the “mutagenicity in the Ames assay” value [11] was “not mutagenic”.
